The values below come from publication PMC8277899, “A novel RyR1-selective inhibitor prevents and rescues sudden death in mouse models of malignant hyperthermia and heat stroke” (Nature Communications, 2021).

Values after ≈ are worked out from the molar mass of the structure shown. Structures can show the parent of a compound that is named as a salt.

For one data set, the system named is RyR1 channel. Details: method as in PMID 31299492. The conditions noted are these: HEK293 cell-based assay; read-out: IC50 for inhibiting the RyR1 channel; cited from earlier work.
The nature of data set [1]: Thermodynamic solubility in solutions for injection. The conditions noted are these: 25 °C; for solubility at 48 h: thermodynamic from solid.
The conditions of data set [2]: cited from earlier work.

As a reminder, the IC50 is the concentration at which inhibition is half-maximal. For the molecule `CCn1cc(C(=O)O)c(=O)c2cc3c(cc21)OCO3` [oxolinic acid, reference compound], the IC50 in the data set with RyR1 channel was 810 nM.
A word on the solubility: it is how much of the substance goes into solution per volume. High values mean a readily soluble substance, low ones a poorly soluble substance. As for `CCCCCCCCn1cc(C(=O)O)c(=O)c2cc3c(cc21)OCO3` [Cpd1 sodium salt], the solubility at 48 h in data set [1] (5% glucose aqueous solution, saline or isotonic) is 351 ± 14 µg/mL; in data set [1] (pure water, water) it was 1360 ± 220 µg/mL. Further, in data set [1] (Normal saline (0.9% NaCl), 48 h), the Solubility was 849 ± 58 (4) µg/mL.
As for `O=C1CN(/N=C/c2ccc(-c3ccc([N+](=O)[O-])cc3)o2)C(O)=N1` [dantrolene], in data set [2], the “plasma half-life (t1/2)” value is given as 12 h. In addition, the plasma half-life in data set [2] (in humans after intravenous injection) was 10 to 12 h. This molecule also registered a solubility at 48 h in data set [1] (normal saline (0.9% NaCl), saline or isotonic) of 25.7 ± 2.1 µg/mL (≈ 81.8 µM).
